Laboratory results taken from ChEMBL document CHEMBL5726747, “Substituted pyrido[3,4-d]pyrimidines and pyrido[4,3-d]pyrimidines as p70S6K inhibitors” (2019).

Columns and labels:
[1] = target: RAC-alpha serine/threonine-protein kinase (Homo sapiens, UniProt P31749); assay: AKT/PKB Kinase Assay: In order to measure AKT inhibition in the Caliper Life Sciences LC3000, a TTP Mosquito liquid handling instrument was used to place 125 nl of the appropriate concentration of inhibitor in 100% DMSO (for a dose response curve calculation) into each well of a 384-well plate. To this reaction, the following components were added to a final volume of 12.5 μl: 0.1 ng/μl His-AKT (Full Length) (Invitrogen, Part # P2999, Lot #641228C); 160 μM ATP (Fluka, 02055); 1 mM DTT (Sigma, D0632); 1 mM MgCl2 (Sigma, M1028); 1 μM substrate peptide (sequence FITC-AHA-[…]-NH2), synthesized by Tufts Peptide Synthesis service; 100 mM HEPES pH 7.5 (Calbiochem, 391338); and 0.015% Brij-35 (Sigma, B4184).The reaction was incubated for 90 min at 25° C., and then stopped by the addition of 70 μl of Stop buffer (100 mM HEPES pH 7.5, 0.015% Brij-35, 10 mM EDTA (Sigma, E7889)). The plate was read on a Caliper LC 3000 in an Off-Chip mobility shift assay format, using the following parameters for a 12-sipper chip: screening pressure −2.3 psi, upstream voltage −500, and downstream voltage −3000. These conditions cause unphosphorylated substrate and phosphorylated product peptide to resolve as separate peaks allowing direct measurement of percentage of conversion of substrate to product. The percent conversion was plotted against concentration of inhibitor to produce a sigmoidal dose response curve, from which an IC50 was calculated.
[2] = target: Ribosomal protein S6 kinase beta-1 (Homo sapiens, UniProt P23443, T412E); assay: p70S6K Enzyme Assay: p70S6K inhibitor compounds were diluted and plated in 96 well plates. A reaction mixture including the following components were then added to the compound plate to initiate the enzyme reaction: p70S6K (3 nM, T412E mutant, Millipore) was mixed with 24 μM ATP in an assay buffer containing 100 mM Hepes (pH 7.5), 5 mM MgCl2, 1 mM DTT, 0.015% Brij and 1 μM of the substrate peptide FITC-AHA-[…]-OH (derived from the S6 ribosomal protein sequence, FITC=fluorescein isothiocyanate, AHA=6-aminohexanoic acid). The reaction was incubated for 90 min at 25° C., before the addition of 10 mM EDTA to stop the reaction. The proportion of substrate and product (phosphorylated) peptide was analyzed on a Caliper Life Sciences Lab Chip 3000, using a pressure of −1.4 psi, and upstream and downstream voltages of −3000 and −700, respectively. Product peaks were resolved before substrate peaks on the resulting chromatograms. To assess the inhibitory potential of the compounds, IC50 values were determined, as shown above.
Ribosomal protein S6 kinase beta-1, sequence (P23443 whole entry T412E): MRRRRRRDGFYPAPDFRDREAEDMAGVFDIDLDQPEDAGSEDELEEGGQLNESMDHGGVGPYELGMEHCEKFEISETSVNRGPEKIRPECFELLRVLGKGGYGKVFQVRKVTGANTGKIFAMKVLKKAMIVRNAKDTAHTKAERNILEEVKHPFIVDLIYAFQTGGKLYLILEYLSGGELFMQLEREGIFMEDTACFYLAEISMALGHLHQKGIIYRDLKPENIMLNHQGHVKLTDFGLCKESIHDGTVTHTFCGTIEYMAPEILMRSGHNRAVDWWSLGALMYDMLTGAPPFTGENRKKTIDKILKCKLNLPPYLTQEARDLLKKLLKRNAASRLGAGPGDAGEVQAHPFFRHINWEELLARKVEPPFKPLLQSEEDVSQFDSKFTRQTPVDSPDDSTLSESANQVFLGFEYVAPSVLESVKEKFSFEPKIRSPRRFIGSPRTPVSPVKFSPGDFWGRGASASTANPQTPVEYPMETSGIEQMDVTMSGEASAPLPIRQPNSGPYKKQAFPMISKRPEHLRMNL

RAC-alpha serine/threonine-protein kinase, sequence (P31749 whole entry): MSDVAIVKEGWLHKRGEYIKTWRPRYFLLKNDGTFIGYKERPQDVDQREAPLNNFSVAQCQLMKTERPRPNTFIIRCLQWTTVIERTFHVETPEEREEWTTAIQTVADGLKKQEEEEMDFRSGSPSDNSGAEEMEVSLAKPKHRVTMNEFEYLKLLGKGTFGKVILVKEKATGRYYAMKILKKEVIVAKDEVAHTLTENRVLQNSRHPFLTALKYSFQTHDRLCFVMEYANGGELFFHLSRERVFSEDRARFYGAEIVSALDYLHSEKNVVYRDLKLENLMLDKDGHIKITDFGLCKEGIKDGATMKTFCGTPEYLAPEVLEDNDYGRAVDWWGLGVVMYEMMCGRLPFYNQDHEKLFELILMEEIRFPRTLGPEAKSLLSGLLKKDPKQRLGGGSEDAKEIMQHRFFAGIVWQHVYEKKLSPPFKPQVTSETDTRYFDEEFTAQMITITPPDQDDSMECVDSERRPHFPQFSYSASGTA

SMILES | IC50 [1] | IC50 [2]
CNC[C@@H](Nc1ncnc2c(C(N)=O)ccnc12)c1ccc(F)c(Cl)c1 | < 25 nM | < 25 nM
NC(=O)c1ccnc2c(N[C@H](CN3CCC3)c3ccc(F)c(C(F)F)c3)ncnc12 | < 25 nM | < 25 nM
CN(C)C[C@@H](Nc1ncnc2c(C(N)=O)ccnc12)c1ccc(Cl)c(F)c1 | – | < 25 nM
NC(=O)c1ccnc2c(N[C@H](CN3CCC3)c3ccc(F)c(C(F)(F)F)c3)ncnc12 | < 25 nM | < 25 nM
CCNC[C@@H](Nc1ncnc2c(C(N)=O)ccnc12)c1ccc(F)c(Cl)c1 | – | < 25 nM
CCNC[C@@H](Nc1ncnc2c(C(N)=O)ccnc12)c1ccc(F)c(Br)c1 | – | < 25 nM
N#Cc1ccc([C@@H](CN2CCC2)Nc2ncnc3c(C(N)=O)ccnc23)cc1Cl | < 25 nM | < 25 nM
